Measurements: US9801809B2, “Compositions including a botanical extract and methods of using the same in skin whitening and skin lightening applications” (Access Business Group International LLC, priority 2014, dated 2017)

Tested on: Melan-a cells
Test: Melanin production in Melan-a cells
Format: cell-based
Conditions: extract 25 μg and 12.5 μg, treated twice, compared to 100% untreated control, FIG. 3
Description: The chrysanthemum extract in an amount of 25 μg and 12.5 μg was solubilized in DMSO and added to Melan-a cells that were freshly seeded at a density of 5×10^4 cells on a 24 well plate. The cytosolic pH of the Melan-a melanocytes in this assay is about 5-7. Each dose of the chrysanthemum extract was added to the cells in triplicate. The final concentration of DMSO in the culture medium was maintained at 0.25%. Forty eight hours following the first set of treatment, the cells were again treated with the chrysanthemum extract and supplemented with fresh medium. Two days later, melanin was extracted and quantified by normalizing with protein content, following the method described by Komatsu et al. (J. Cosmet. Sci; 64, 455-453 (2013); Rana J. et al., Pigment Cell Res., 18:447 (2005)). Inhibitory activity of samples was reported as % reduction in melanin production compared to 100% untreated control (UT). Phenylthiourea (PTU), a well-known tyrosinase inhibitor was used as positive inhibitor control in the assay. FIG. 3 plots the results.

## O=c1cc(-c2ccc(O)c(O)c2)oc2cc(O[C@@H]3OC(CO)[C@@H](O)C(O)C3O)cc(O)c12 (stereo partly shown) [luteolin-7 glucoside]
  reduction in melanin production: dose-dependent inhibition
